Patent US20240130966A1 (Aerovate Therapeutics, Inc., priority 2021, published 2024)
Where two headings read alike, the source gives them in different places.

Procedure: Generator impactor profiles were prepared for ceramic milled powders both before and after conditioning with high humidity for a short time (80-90% RH at room temperature for ˜3 hours).
Again, the exposure consisted of 80%-90% relative humidity at room temperature for about 3 hours.

[1] = Post-exposure, 80%-90% relative humidity at room temperature for about 3 hours (N=9)

FPF of emitted dose (%) [1]: 66.8 +/− 4.3%
FPF of fill (%) [1]: 48.1 +/− 3.0%
FPF of emitted dose (%) (Pre-exposure to humidity (N=7)): 52.3 +/− 6.3%
FPF of fill (%) (Pre-exposure to humidity (N=7)): 36.2 +/− 3.5%
Increase in fine particle dose (stage 3-MOC levels) after humidity conditioning (ceramic milled powders, 80-90% RH at room temperature for ~3 hours, FIG. 1): 10-20 % of the capsule fill dose
Delivery performance after desorption compared to post-humidification powders (humidity for 12+ hours, then desorbed at <5% RH for about 24 hours): no change in delivery performance
Substance: Imatinib
